Data published in paper PMC10597453, “Novel inhibitors that target bacterial virulence identified via HTS against intra-macrophage survival of Shigella flexneri” (mSphere, 2023).
≈ marks a conversion by molar mass, not a printed value. Read-outs that look alike come from different tables or passages of the source.

Columns and labels:
[1] = test system: Shigella propagation in Caco2 cells; test: Inhibition of Shigella propagation in Caco2 cells assay; type: cell-based, Shigella flexneri; conditions: for IC50: INCACO2CELLS, Caco-2
Method: The inhibition of Shigella propagation in Caco2 cells assay was performed following the previously described protocol based on microcarrier cell culture which models the in vivo three-dimensional environment with the minor modifications. This protocol will be described in a forthcoming paper (V. Phat, A. Lim, S. Lozano, C. De Cozar-Gallardo, M. Castellote-Alvaro, J. Rodrigues, A. Villegas, D. Alvarez, E. Alvaro, L. Ballell-Pages, S. Baker, unpublished data) and is available upon request (see Data Availability Statement).

[2] = test system: S. flexneri 2457T-nl in THP-1 macrophages; test: Shigella intra-macrophage survival dose-response assay (luciferase readout)
Method: The experimental protocol for the Shigella intra-macrophage survival screen is divided into three time segments: (i) THP-1 macrophage and bacteria preparation 1 day prior to compound screen assay, (ii) THP-1 differentiation, invasion, gentamicin treatment, dispensing of infected cells onto plates pre-dispensed with compounds to be tested, and the beginning of their incubation performed on the same day, and (iii) dispensing of the Nano-Luc substrate and luminescence readout after 18 hours of incubation.
The assay was adapted to the 1,536-well plate format for the HTS. A multidrop dispenser with the small tube metal tip cassette (Thermo Fisher Scientific) was used to seed 5 µL of the cell suspension to plates pre-dispensed with compounds to be tested that were transferred to RT 1–1.5 hours before adding infected cells. Plates were incubated for 18 hours at 37°C in a humidified atmosphere with 5% CO2.
After incubation, the bacterial count is quantified by luminescence readout. Luminescence correlated linearly with the number of viable bacteria. The Nano-Luc substrate solution was prepared according to the manufacturer (Nano-Glo Luciferase Assay System, Promega, Madison, WI, USA). A multidrop dispenser with the small tube metal tip cassette (Thermo Fisher Scientific) was used to dispense 2 µL of substrate per well, and plates were stored in the dark prior to reading. Luminescence was read (0.1 s/well) on a microplate reader (EnVision, PerkinElmer) after 30 minutes of incubation at RT.
The dose-response assay was performed following the above protocol using different plate formats.

[3] = target: T1, Nano-Luc reporter (S. flexneri 2457T-nl reporter strain) (Oplophorus gracilirostris, UniProt Q9GV45, A31E/A60N/A81I/F95D/I117V/K70R/L54V/L99Q/M102K/N193R/P142E/Q151K/Q38R/Q45L/V71I/Y165I); test: Nano-Luc inhibition (assay readout interference); type: cell-based
T1 construct: expressed in transfected cells; host or cells: Shigella flexneri serotype 2a strain 2457T carrying plasmid pMK-RQ-nl
T1 sequence (Q9GV45 28-196 with tags or gaps with the stated changes limits assumed): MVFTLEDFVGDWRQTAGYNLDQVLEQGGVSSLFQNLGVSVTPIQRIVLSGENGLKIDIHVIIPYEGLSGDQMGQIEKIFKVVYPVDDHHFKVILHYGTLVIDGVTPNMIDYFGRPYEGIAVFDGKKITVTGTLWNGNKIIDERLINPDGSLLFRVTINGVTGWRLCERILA

S. flexneri 2457T = test: Shigella antibacterial assay (resazurin); type: cell-based, Shigella flexneri; conditions: for MIC90: S. flexneri 2457T, resazurin assay
Method: An antibacterial assay against S. flexneri 2457T was performed according to the previously described protocol ([40]). The antibacterial assay was used to determine the MIC90 values of potential inhibitors for S. flexneri 2457T. The assay measures the effect of compounds on the bacteria using resazurin (Thermo Fisher Scientific) measurement as surrogate of bacterial viability. Briefly, to perform the extracellular dose responses, compounds were pre-dispensed in DMSO, and threefold serial dilutions were made for each compound into 384-well plate format. Bacterial inoculum for the assay was prepared in MH medium, resulting at 1 × 10^6 CFU/mL, and 5 µL of this culture was dispensed per well. Then, plates were incubated at 37°C overnight. The resazurin reagent (10 µL) was added to each well followed by an incubation at RT and darkness for 3 hours. The fluorescence intensity of the assay plates was measured using microplate reader (EnVision, PerkinElmer). For MIC90 determination, data were normalized by using DMSO at a final concentration of 0.5% as the negative control (100% bacterial growth) and moxifloxacin at a final concentration of 20 µM as the positive control (0% bacterial growth). The experiment was done in duplicate.

[4] = Shigella flexneri, THP-1, 18 h, read-out: Survival inhibition IC50
[5] = Shigella flexneri, THP-1, read-out: Shigella Intra-macrophage Survival IC50
[6] = read-out: Nano-Luc interference IC50, S. flexneri 2457T-nl reporter strain in MH medium, 18 hours

SMILES	IC50 [1]	IC50 [2, 4]	IC50 [3]	other results
Cc1ccccc1-c1c(C#N)c(N)nc(SCc2ccccc2)c1C#N [AN1-77-01]	14000 nM	790 nM	–	–
N#Cc1cc(C(=O)c2ccccc2O)cn(-c2ccccn2)c1=O [AN1-152-01]	2700 nM	310 nM	25000 nM	–
N#Cc1cc(C(=O)c2ccccc2O)cn(-c2ccc(Cl)cc2)c1=O [AN1-152-02]	300 nM	3.9 nM	3700 nM	–
N#Cc1cc(C(=O)c2ccccc2O)cn(C2CCCC2)c1=O [AN1-152-03]	1700 nM	480 nM	62000 nM	–
Cc1ccc(-n2cc(C(=O)c3cc(Cl)ccc3O)cc(C#N)c2=O)cc1 [AN1-152-04]	6200 nM	570 nM	–	–
Cc1ccc(-n2cc(C(=O)c3cc(C)ccc3O)cc(C#N)c2=O)cc1 [AN1-152-05]	300 nM	100 nM	12000 nM	–
COc1ccc(-n2cc(C(=O)c3cc(Cl)ccc3O)cc(C#N)c2=O)cc1 [AN1-152-06]	3900 nM	490 nM	–	–
COc1ccc(-n2cc(C(=O)c3cc(C)ccc3O)cc(C#N)c2=O)cc1 [AN1-152-07]	200 nM	210 nM	27000 nM	–
Cc1ccc(-n2cc(C(=O)c3cc(F)ccc3O)cc(C#N)c2=O)cc1 [AN1-152-08]	1900 nM	430 nM	–	–
Cc1cccc(-n2cc(C(=O)c3cc(F)ccc3O)cc(C#N)c2=O)c1 [AN1-152-09]	10000 nM	730 nM	–	–
CCOc1ccc(-n2cc(C(=O)c3cc(F)ccc3O)cc(C#N)c2=O)cc1 [AN1-152-10]	–	240 nM	50000 nM	Propagation in Caco2 IC50 [1]: Inactive
N#Cc1ccc(C(=O)Nc2nnc(-c3ccncc3)s2)cc1 [AN2-45-02]	14000 nM	890 nM	–	–
Cc1c(-c2cccs2)[nH]c2c(C#N)cnn2c1=O [AN-5-02]	2100 nM	90 nM	780 nM	–
N#Cc1ccc(C(=O)Nc2cccc(-c3ccc(CN4CCNCC4)cc3)c2)cc1 [AN-30-01]	–	880 nM	–	Propagation in Caco2 IC50 [1]: Inactive
CC[C@H]1OC(=O)[C@H](C)[C@@H](O[C@H]2C[C@@](C)(OC)[C@@H](O)[C@H](C)O2)[C@H](C)[C@@H](O[C@@H]2O[C@H](C)C[C@H](N(C)C)[C@H]2O)[C@](C)(O)C[C@@H](C)CN(C)[C@H](C)[C@@H](O)[C@]1(C)O [Azithromycin, azithromycin, reference compound]	–	–	–	MIC90 (S. flexneri 2457T; Shigella flexneri): 10 µM (≈ 7.49 µg/mL); IC50 [2, 5]: 80 nM
CO/N=C(\C(=O)N[C@@H]1C(=O)N2C(C(=O)O)=C(CSc3nc(=O)c(=O)[nH]n3C)CS[C@H]12)c1csc(N)n1 [Ceftriaxone, ceftriaxone, reference compound]	–	–	–	MIC90 (S. flexneri 2457T; Shigella flexneri): 0.1 µM (≈ 0.0555 µg/mL); IC50 [2, 5]: 10 nM
O=C(O)c1cn(C2CC2)c2cc(N3CCNCC3)c(F)cc2c1=O [Ciprofloxacin, ciprofloxacin, reference compound]	–	–	–	MIC90 (S. flexneri 2457T; Shigella flexneri): 0.07 µM (≈ 0.0232 µg/mL); IC50 [2, 5]: 7 nM
Cc1ccc(C2=NN(C3=NC(=O)C(CC(=O)Nc4ccccc4)S3)C(c3ccccc3)C2)cc1 (stereo not drawn) [Compound S-10-01]	500 nM	410 nM	11000 nM	–
Cc1ccc(NC(=O)CC2SC(N3N=C(c4cccs4)CC3c3ccccc3)=NC2=O)cc1 (stereo not drawn) [Compound S-10-03]	1100 nM	620 nM	–	–
COc1ccc(-n2nnnc2SC(C(=O)N(C)C)c2ccccc2)cc1 (stereo not drawn) [Compound S-28-01]	4500 nM	990 nM	5000 nM	–
CCc1cccc(CC)c1NC(=O)c1c(-c2ccccc2)noc1C [Compound S-53-01]	1500 nM	170 nM	1200 nM	–
Cc1noc2ncn(Cc3nc(Cc4ccccc4F)no3)c(=O)c12 [Compound S-82-01]	19000 nM	1000 nM	19000 nM	–

SMILES	IC50 [1]	IC50 [2, 4]	IC50 [3]	other results
Cc1cc(CNC(=O)CCc2c(C)nc3cc(O)nn3c2C)no1 [Compound S-86-01]	1000 nM	270 nM	1700 nM	–
CCN(C(=O)Cn1c(-c2nonc2N)nc2ccccc21)c1ccccc1 [Compound S-134-02]	4900 nM	680 nM	5100 nM	–
O=C(CN1CCc2ccccc2C1)Nc1cnccc1C(=O)O [Compound S-136-01]	3100 nM	620 nM	3000 nM	–
COc1ccc(CCNC(=O)c2nc(O)c3nnn(Cc4ccc(F)cc4)c3n2)cc1OC [Compound S-169-01]	21000 nM	590 nM	12000 nM	–
CN(C(=O)Cc1cccs1)C1(C(=O)NC2CCCCC2)CCCCC1 [Compound S-185-01]	4300 nM	700 nM	–	IC50 [3, 6]: 3800 nM
COc1ccc(N2CCN(c3nc4ncccc4o3)CC2)cc1 [Compound S-281-01]	24000 nM	640 nM	28000 nM	–
CC(C)c1noc2ncc(C(=O)c3ccccc3O)cc12 [Compound S-316-01]	1900 nM	1300 nM	–	–
CC(NC(=O)NC(C)c1cccs1)c1ccc2c(c1)OCCO2 (stereo not drawn) [Compound S-378-01]	6600 nM	1000 nM	–	–
O=S(=O)(Nc1ccc(F)cc1C(F)(F)F)c1ccc(-c2cccs2)s1 [DS1-32-04]	3800 nM	410 nM	–	IC50 [3, 6]: 3100 nM
O=S(=O)(Nc1ccccc1C(F)(F)F)c1ccc(-c2ccc(F)cc2)s1 [DS1-32-05]	3100 nM	560 nM	3000 nM	–
COc1ccc(S(=O)(=O)Nc2ccc(Cl)cc2F)cc1[N+](=O)[O-] [DS2-187-03]	3000 nM	700 nM	–	–
Cc1nn(-c2ccccc2)c(C)c1S(=O)(=O)Nc1nc2c(s1)CCCC2 [DS-61-01]	2300 nM	500 nM	2200 nM	–
COc1ccc2nc(NS(=O)(=O)c3cccc(C#N)c3)sc2c1 [DS-64-06]	3100 nM	440 nM	9500 nM	–
Cc1ncccc1Oc1ncc(Cl)cc1S(=O)(=O)Nc1cccc(Cl)c1 [DS-90-01]	10000 nM	1200 nM	65000 nM	–
COc1ccc(CN(C)S(=O)(=O)c2nnc(NC(=O)c3cccc(Cl)c3)s2)cc1OC [DS-299-02]	2500 nM	800 nM	4600 nM	–
CC1(C)S[C@@H]2[C@H](/N=C/N3CCCCCC3)C(=O)N2[C@H]1C(=O)O [Mecillinam, mecillinam, reference compound]	–	–	–	MIC90 (S. flexneri 2457T; Shigella flexneri): 0.2 µM (≈ 0.0651 µg/mL); IC50 [2, 5]: 700 nM
COc1ccc(-c2ccn(CC[C@](C)(C(=O)NO)S(C)(=O)=O)c(=O)c2)c(F)c1 [PF-5081090, reference compound]	–	–	–	MIC90 (S. flexneri 2457T): 0.2 µM (≈ 0.0825 µg/mL); IC50 ([2]; read-out: Shigella Intra-macrophage Survival IC50, commercially available antibiotics, luciferase assay): 60 nM
Fc1ccc(-c2oncc2-c2nnnn2-c2ccccc2)c(F)c1 [PT-297-01]	2100 nM	430 nM	8300 nM	–
Fc1ccc(-c2oncc2-c2nnnn2-c2ccccc2)cc1F [PT-297-02]	1200 nM	270 nM	4900 nM	–
c1ccc(-n2nnnc2-c2cnoc2-c2cccs2)cc1 [PT-297–03]	3000 nM	500 nM	8100 nM	–
CC(C)(C)C(=O)OCOC(=O)[C@@H]1N2C(=O)[C@@H](/N=C/N3CCCCCC3)[C@H]2SC1(C)C [Pivmecillinam, pivmecillinam]	–	–	–	MIC relative to survival IC50 (times higher) (S. flexneri 2457T; MIC vs intra-macrophage survival IC50): very similar; MIC90 (S. flexneri 2457T; Shigella flexneri): 1 µM (≈ 0.44 µg/mL); IC50 [2, 5]: 900 nM
COc1c(N2C[C@@H]3CCCN[C@@H]3C2)c(F)cc2c(=O)c(C(=O)O)cn(C3CC3)c12 [moxifloxacin, reference compound]	–	–	–	bacterial survival ([2]; 20 µM, macrophage permeable positive control): no detectable bacterial survival
